The nature of the data set: Human HepG2 cell viability assay in 384 well format. The conditions noted are these: HepG2 cells, read-out: Inhibition. The data set is classed as toxicity, cell-based. Further details: dose 125 nL, time 70.5 hour; cytotoxicity at 70.5 h: concentration not given beside the values.
For `CCS(=O)(=O)N1CCCC2(CCCC(=O)N2C)C1` (stereo unspecified), the cytotoxicity at 70.5 h was -9.96%.
Turning to `CC(=O)N1CC2(CCN(C(=O)c3ccc4c(c3)OCCO4)CC2)C1`, the cytotoxicity at 70.5 h came to 20.2%.
With `O=C(CC(F)(F)F)N1C[C@H]2CN(CC3CC3)C(=O)[C@H]2C1` the figure was -5.1%; with `CC(=O)N1CCOCC2(CCCNC2)C1` (stereo unspecified), -9.88%; with `O=C(C[C@@H]1COC[C@H]2CN(Cc3ccsc3)C[C@@H]12)N1CCCC1`, -3.89%.
`CC(=O)N1CCC2(CC1)CN(C(=O)C1CC1)c1ccc(F)cc12`: the cytotoxicity at 70.5 h is -0.352%.
For the compound `CN(C)C(=O)NC1COC2(CCN(C(=O)c3ccc(Cl)cc3)CC2)C1` (stereo unspecified), the cytotoxicity at 70.5 h is -8.31%.
Turning to `CC(=O)N1C[C@H]2CN(CC3CC3)C(=O)[C@H]2C1`, the cytotoxicity at 70.5 h is -0.948%.
With `COCCN1C[C@@H]2CN(C(=O)CC3CC3)C[C@@H]2C1=O` the figure was -6.26%; with `COCCn1c2c(ccc1=O)CC(N)CC2` (stereo unspecified), -0.36%.
Turning to `CC(C)Cn1c2c(ccc1=O)CC(N)CC2` (stereo unspecified), the cytotoxicity at 70.5 h was -3.16%.
For `O=C([C@H]1CCCO1)N1Cc2nccn2CC(COc2cccnc2)C1` (stereo partly specified), the cytotoxicity at 70.5 h was -4.93%.
For `Cn1cc(C2CC(=O)NC23CCN(C(=O)C2CC=CC2)CC3)cn1` (stereo unspecified), the cytotoxicity at 70.5 h was 18.7%.
In the case of `O=C(N1CCOCC1)N1CCC2(CCNC2)C1` (stereo unspecified), the cytotoxicity at 70.5 h was -3.15%.
With `CS(=O)(=O)NCc1cncc2c1CCN(C(=O)N1CCCC1)C2` the figure was 11.1%.
For `Cc1ccc(CN2CCC[C@@H]3CN(C(=O)c4ccco4)C[C@@H]32)o1`, the cytotoxicity at 70.5 h is -9.58%.
The same measure for `O=C1CC[C@]2(CC[C@@H](NC3CCOCC3)CC2)N1Cc1ccccc1`: -2.63%.
The same measure for `COCCN1CCC2(CC1)CN(C(=O)C1CC1)c1ccc(F)cc12`: -3.73%; for `CN(C)C1COC2(CCN(C(=O)c3cccc(Cl)c3)CC2)C1` (stereo unspecified): -9.63%.
With `O=C(C[C@H]1[C@H]2CN(Cc3ccc(F)cc3)C[C@@H]12)N1CCCC1` the figure was -3.22%; with `COc1ccc(CN2C[C@@H]3[C@H](CC(=O)N4CCCC4)[C@@H]3C2)cc1`, -9.32%.
Consider `CNC(=O)CN1CC[C@H]2CN(C(=O)c3ccc(C)nc3)C[C@H]2C1`, for which the cytotoxicity at 70.5 h is -1.44%.
With `CC(C)CCN1CCc2[nH]nc(C(=O)N3CCCC3C)c2C1` (stereo unspecified), the cytotoxicity at 70.5 h is -6.21%.
The same measure for `O=C(NC1CC1)N1CCCC2(CCCCN2)C1` (stereo unspecified): -5.05%; for `O=C(c1ccco1)N1C[C@@H]2OCCN(c3ncccn3)[C@@H]2C1`: -13.6%.
The same measure for `O=C(c1ccc(O)cc1)N1C[C@@H]2OCCN(c3ncccn3)[C@@H]2C1`: -10.7%; for `CN(C)C(=O)N1CCC[C@]2(C(=O)N(C)C)CN(c3ccccn3)C[C@@H]2C1`: -10.5%.
The same measure for `Cn1cc(N2C(=O)CC[C@@H]3[C@H]2CCN3Cc2nccs2)cn1`: -11.9%.
For the compound `CN1CC(=O)N(c2ccccc2)CC12CCN(C(=O)c1ccnnc1)C2` (stereo unspecified), the cytotoxicity at 70.5 h was found to be 24.2%.
Consider `c1cc(CN2CCC3(CC2)CC(N2CCCC2)CO3)co1` (stereo unspecified), for which the cytotoxicity at 70.5 h is -5.63%.
Regarding `CN(C)C(=O)[C@]12CCCN(CC3CC3)C[C@H]1CN(c1ccccn1)C2`, the cytotoxicity at 70.5 h was -8.29%.
In the case of `COCC1c2c(cnn2CC2CC2)CCN1Cc1cc(C)on1` (stereo unspecified), the cytotoxicity at 70.5 h was -12.7%.
In the case of `c1cc(CN2CCO[C@H]3[C@H](OCCN4CCCC4)CC[C@@H]32)co1`, the cytotoxicity at 70.5 h was -14.8%.
On to `CC(C)N1CC[C@@H]2OC[C@H](C(=O)Nc3cccnc3)C[C@@H]2C1`, for which the cytotoxicity at 70.5 h was 25.1%.
In the case of `CN(Cc1ccncc1)C1COC2(CCN(Cc3cccs3)CC2)C1` (stereo unspecified), the cytotoxicity at 70.5 h was -12.7%.
The same measure for `Cc1nc(CN2CCC3(CCCN(Cc4cccnc4)C3)C2=O)cs1` (stereo unspecified): 26.7%.
